One series deals with CRABP II. The series can be described thus: CRABP II mRNA expression in SH-SY5Y cells, real-time PCR. Type of series: cell-based, human. Conditions: ATRA 0.01 μM or 13cisRA 0.1 μM with R116010 1 μM vs retinoid alone, 24 h. How it is done: (§1) SH-SY5Y, SH-EP (N- and S-type cells respectively derived from the parental line SK-N-SH), LAN6, IMR-32, NGP and GIMEN neuroblastoma cell lines were cultured routinely in RPMI 1640 medium containing fetal calf serum (10%) and L-glutamine (2 mM). Cells were grown at 37°C in a humidified incubator containing 5% CO2.
(§2) 13-cis-Retinoic acid and ATRA were dissolved in DMSO and diluted in cell culture medium to obtain final concentrations of 0.1–10 μM. The final concentration of DMSO in all cases was <0.2%. All experiments were performed in dim light and tubes containing retinoids were wrapped in aluminium foil.
RNA was reverse-transcribed using Promega's Reverse Transcription System according to the manufacturer's instructions, using random hexamer primers. Real-time PCR was performed on 20 ng cDNA using TaqMan gene expression products for human CYP26A1, CYP26B1, CRABPII, RARβ and MYCN in combination with the TaqMan Universal PCR master mix (Applied Biosystems, Warrington, UK). […] As internal standard, β-actin was measured simultaneously using the endogenous control assay provided by Applied Biosystems. […] Standard curves were generated from serial dilutions of cDNA prepared from cells treated with ATRA (1 μM) and the data were analysed using the GeneAmp Sequence Detection System software. CYP26C1 expression was analysed as described previously ([Taimi et al, 2004]).
On the technique in general: In qPCR the cycle at which signal appears reflects the starting amount.

Series [1] has as its system SH-SY5Y, NGP, SH-EP and GIMEN cells. Briefly: Intracellular ATRA and 13cisRA concentrations in neuroblastoma cells, normal-phase HPLC. Type of series: cell-based, human. How it is done: as §1, §2
(§3) Cell pellets obtained from retinoid incubations were re-suspended in 2 ml cell culture medium and disrupted by passing the samples several times through a syringe and hypodermic needle (25G × 1 inches, 0.5 mm × 25 mm; Terumo, Somerset, NJ, USA). Tumour and liver tissues were re-suspended in PBS and homogenised (T25 homogeniser, IKA Laboratories, Staufen, Germany). Retinoids were extracted as described previously ([Veal et al, 2002]; [Armstrong et al, 2005b]). Samples were reconstituted in 200 μl mobile phase A (n-hexane:dichloromethane:propan-2-ol, 400 : 1 : 0.27) and analysed by normal-phase HPLC as described previously ([Veal et al, 2002]). For LC/MS analysis, samples were reconstituted in 200 μl mobile phase A (50% acetonitrile, 50% (0.2%) acetic acid, v v^−1).
Quantification of retinoid levels was carried out by HPLC analysis using a Waters 2690 Separations Module and 996 Photodiode array detector (Waters Ltd, Elstree, UK) and Waters Millennium software for data acquisition. Cell volumes were determined as described previously ([Veal et al, 2002]), and intracellular RA concentrations were expressed in micromolars.

For the next series, the system named is RA metabolism. Briefly: Effect of R116010 on retinoid concentrations (plasma, liver, tumour) in an SH-SY5Y xenograft model, LC/MS. Type of series: in vivo, CD-1 nude mice. How it is done: All in vivo experiments were approved by the relevant institutional animal welfare committees, and performed according to national law. Female athymic nude mice (CD-1 nu/nu, Charles River) used for antitumour studies were maintained and handled in isolators, under specific pathogen-free conditions, at 24°C with a 12 h light, 12 h dark cycle. Tumours were generated by implantation of SH-SY5Y cells subcutaneously (s.c.) into one flank of CD-1 nude mice (1 × 10^7 cells per animal).
Treatments began when the tumours were between 7 and 10 mm in length and breadth. Retinoids and R116010 were initially dissolved in DMSO before 10- or 20-fold dilutions in PBS, respectively. For pharmacokinetic studies, the animals were dosed with ATRA or 13cisRA (each 100 mg kg^−1) orally for 0.5, 2 and 6 h. For metabolism studies, animals were treated with R116010 orally at doses of 1.25 or 2.5 mg kg^−1 either immediately before the retinoid being studied, or up to three times (over 1–2 days) before dosing with the retinoid. At termination of experiments, animals were bled under terminal anaesthesia then killed by cervical dislocation. Plasma was immediately removed from the blood by centrifugation at 1000 g for 5 min and snap-frozen in liquid nitrogen in amber Eppendorfs. Tumour and liver samples were removed and snap-frozen, wrapped in foil, in liquid nitrogen.
as §3
Resolution of retinoids was performed with a Luna C18(2) column (3 μm, 50 mm × 2 mm) using a Perkin Elmer LC (Beaconsfield, UK) system, consisting of a vacuum degasser, two series 200 pumps, a thermostatically controlled series 200 autosampler and a Waters 2487 UV absorbance detector. Retinoic isomers and metabolites were separated by gradient reversed-phase chromatography. An injection volume of 20 μl with a flow rate of 0.2 ml min^−1 was used with mobile phase A (50% acetonitrile, 50% (0.2%) acetic acid, v v^−1) and mobile phase B (acetonitrile, 0.1% acetic acid, v v^−1). Linear gradients were employed between the specified times as follows: 0, 100% A; 5 min, 100% A; 15 min, 100% B; 20 min, 100% B; 23 min, 100% A; 35 min, 100% A. An Applied Biosystems (Warrington, UK) API-2000 LC/MS/MS triple Q (quadrupole) mass spectrometer with electrospray ionisation source, controlled by Analyst software, was operated in single quadrupole negative mode for the detection of compounds.

The subject of series [2] is mouse mammary carcinoma model. The arrangement: method as in Van Heusden et al, 2002. Conditions: ref Van Heusden et al, 2002; cited from earlier work.
Details of series [3]: method as in Villablanca et al, 1995. Conditions: high-dose pulse therapy after autologous bone marrow transplantation or non-myeloablative therapy; ref Villablanca et al, 1995; cited from earlier work.
Where [4] appears, read: 13cisRA 100 mg kg^−1 with increasing doses of R116010, 6 h.
Setting [5] is: ATRA-treated mice (100 mg kg^−1) with R116010, 6 h.

SMILES strings stand for the structures.

Take `C[C@@H]([C@H](c1ccc(Nc2nc3ccccc3s2)cc1)n1ccnc1)N(C)C` [R116010]: the “Effect on CRABP II expression, co-incubation with retinoid” value in the series on CRABP II was “significant increases”. Moreover, in series [1] (NGP cells, 10 μM 13cisRA with 1 or 10 μM R116010, 24 h), the “Effect on ATRA concentrations after incubation with 13cisRA” value is “similar, although nonsignificant, trend”. Further, the “Effect on ATRA levels after incubation with 13cisRA” value in series [1] (SH-EP or GIMEN cells, 10 μM 13cisRA with 1 or 10 μM R116010, 24 h) is “no observable effect”. Moreover, the “Effect on intracellular ATRA concentrations after ATRA treatment” value in series [1] (SH-EP or GIMEN cells, 10 μM ATRA with 1 or 10 μM R116010, 24 h) is recorded as “no effect”. In series [1] (SH-SY5Y and NGP cells, 10 μM ATRA with 1 or 10 μM R116010, 24 h), the “Effect on intracellular ATRA concentrations after ATRA treatment” value is listed as “significant increases”. Further, the “Effect on ATRA concentrations after incubation with 13cisRA” value in series [1] (SH-SY5Y cells, 10 μM 13cisRA with 1 or 10 μM R116010, 24 h) is on record as “significant increase”. Moreover, the “Effect on 13cisRA concentrations after incubation with 13cisRA” value in series [1] (all four cell lines, 10 μM 13cisRA with 1 or 10 μM R116010, 24 h) is listed as “no significant changes”. The “Effect on 13cisRA levels after incubation with ATRA” value in series [1] (any of the cell lines, 10 μM ATRA with 1 or 10 μM R116010, 24 h) was “no effect”. Also, the “Increase in 13cisRA plasma concentration” value in the series on RA metabolism (13cisRA 100 mg kg^−1 after four doses of R116010 at 2.5 mg kg^−1 vs 13cisRA alone, 6 h) is reported as no more than 4.6 fold. Also, the “Effect on 13cisRA plasma concentrations” value in the series on RA metabolism (13cisRA 100 mg kg^−1 with increasing doses of R116010 (1.25; 2.5 mg kg^−1 x1, x2, x4) vs retinoid alone, 6 h) is recorded as “significant increases”. In the series with RA metabolism (setting [4]), the “Effect on plasma 13cis-4-oxo-RA concentrations” value is “no significant dose-dependent effect” and the “Effect on plasma AT-4-oxo-RA concentrations” value is on record as “apparent linear increase”. The “Effect on ATRA plasma concentrations” value in the series with RA metabolism (13cisRA 100 mg kg^−1 with increasing doses of R116010 vs retinoid alone, 6 h) is recorded as “significant increases”. In the series with RA metabolism (13cisRA 100 mg kg^−1 with one and two doses of 2.5 mg kg^−1 R116010, 6 h), the “Effect on liver ATRA levels” value is “increased slightly”. The “Tumour 13cisRA levels with R116010” value with RA metabolism (13cisRA 100 mg kg^−1 with single dose R116010 at 2.5 mg kg^−1, SH-SY5Y tumour, 6 h) was found to be 0.59 ± 0.07 µg/g. Besides, the “Effect on levels of the 4-oxo-RA metabolites in tumour” value with RA metabolism (13cisRA or ATRA in combination with R116010 vs retinoid alone) was “no significant differences”. Also, in the series on RA metabolism (13cisRA-treated mice with R116010), the “Effect on levels of ATRA in tumour samples” value was “not significantly affected”. For the same molecule, the “Increase in plasma ATRA concentrations” value in the series on RA metabolism (ATRA 100 mg kg^−1 after four doses of R116010 at 2.5 mg kg^−1 vs ATRA alone, 6 h) is listed as no more than 2.3 fold. Further, the “Effect on liver 13cisRA or ATRA levels” value in the series with RA metabolism (ATRA 100 mg kg^−1 in combination with R116010, 6 h) is on record as “No significant increases”. In addition, the “Effect on liver 13cis-4-oxo-RA and AT-4-oxo-RA levels” value with RA metabolism (ATRA 100 mg kg^−1 in combination with R116010 or after R116010 pretreatment, 6 h) was “significant decreases”. Besides, in the series on RA metabolism (setting [5]), the “Effect on plasma 13cisRA concentrations” value is given as “marginal” and the “Effect on plasma AT-4-oxo-RA levels” value was “no effect”. In the series with RA metabolism (R116010 before 13cisRA 100 mg kg^−1, 6 h), the “Effect on liver 13cisRA levels” value was “not associated with 13cisRA levels being different from control”. Further, in the series with RA metabolism (R116010 before 13cisRA 100 mg kg^−1, all conditions, 6 h), the “Effect on liver 13cis-4-oxo-RA and AT-4-oxo-RA concentrations” value is reported as “significantly lower levels”. For the same molecule, in the series on RA metabolism (R116010 before ATRA), the “Effect on levels of retinoids in tumour tissue” value is “no significant differences”. In addition, the “Antitumour activity as a single agent” value in series [2] is “exhibits antitumour activity”.

Turning to `CC1=C(/C=C/C(C)=C/C=C/C(C)=C\C(=O)O)C(C)(C)CCC1` [13cisRA, 13-cis-retinoic acid], the “Peak drug levels in patients” value in series [3] is greater than 5 µM.

The record behind these values is article PMC2359919, “Molecular targeting of retinoic acid metabolism in neuroblastoma: the role of the CYP26 inhibitor R116010 in vitro and in vivo” (British Journal of Cancer, 2007).
